The test system of one assay is AMY3. Description: cAMP in-cell Western, AMY3-expressing HEK293 cells. In kind it is cell-based. The following applies: 5 min. From the text: (§1) In order to characterize the antagonist activity of cAC253 at subtypes of amylin receptors, we compared hAmylin-generated cAMP responses in stably expressed AMY1, AMY2, and AMY3 and CTR receptors in HEK293 cells and wild-type HEK (HEK-WT) cells (Additional file 1).
(§2) For in-cell Western blot cyclic adenosine monophosphate (cAMP) quantification, mouse monoclonal anti-cAMP (R&D Systems) was used as a primary antibody and IRDye 700 goat anti mouse antibody (LI-COR) was used as a secondary antibody. Plates were imaged using an Odyssey Infrared Imaging System (LI-COR), and the integrated intensity was normalized to the total cell number on the same well as previously described.
(§3) Amylin receptor subtypes stably expressed in human embryonic kidney (HEK293) cell-line were generated and characterized as described in a previous published article from our laboratory ( Fu et al., J. Biol. Chem. 2012). […]
(§4) The in-cell Western blot cyclic adenosinemonophosphate (cAMP) quantification was used as previously described (Fu et al., J Biol Chem. 2012). […] The cAMP was measured at 5 min after treatment, i.e., at 5 min after different concentration of hAmylin and/or cAC253 treatment, cells were fixed with 4% paraformaldehyde in PBS for 10 min. […] Plates were imaged using an Odyssey Infrared Imaging System (LI-COR), and the integrated intensity was measured. […]

Assay [1] has as its system HEK wild-type control cells. In words: cAMP in-cell Western, wild-type HEK cells. Particulars: 5 min. The assay is classed as cell-based, human.
Description: as §1, §2
The in-cell Western blot cyclic adenosinemonophosphate (cAMP) quantification was used as previously described (Fu et al., J Biol Chem. 2012). Briefly, amylin receptor stable cells were plated at a density of 4x10^4 cells/well in a 96-well plate and cultured for 24 hours. On the day of experiment, culture media was replaced with serum free DMEM medium and further incubate for 6 h before treatment. The cAMP was measured at 5 min after treatment, i.e., at 5 min after different concentration of hAmylin and/or cAC253 treatment, cells were fixed with 4% paraformaldehyde in PBS for 10 min. […] Plates were imaged using an Odyssey Infrared Imaging System (LI-COR), and the integrated intensity was measured. […]

A further assay deals with CTR. In words: cAMP in-cell Western, CTR-expressing HEK293 cells. The assay is classed as cell-based. The following applies: 5 min.
Description: as §1, §2, §3, §4

Assay [2] relates to hippocampal long-term potentiation. The following applies: ref [20], [39]; cited from earlier work. From the text: (§5) As a neuroendocrine hormone, amylin mediates glycemic regulation, energy balance control, and cognitive/motivational processes. Human amylin also modulates autoimmunity and innate inflammation through regulatory T cells. Amyloid precursor protein (APP) and Aβ interact with variety of G-protein-coupled receptors (GPCRs) including amylin receptors. Amylin receptors (AMYs) are a dimerized calcitonin receptor (CTR) with receptor activity-modifying proteins (RAMPs) and belong to class B GPCRs. We have previously shown that hAmylin and Aβ preferentially activate AMY3 recep ...

The test system of another assay is AMY3 receptor subtype. The following applies: ref [23]; cited from earlier work.
Description: as §5

Another assay deals with AMY1. Description: cAMP in-cell Western, AMY1-expressing HEK293 cells. In kind it is cell-based. The following applies: 5 min.
Description: as §1, §2, §3, §4

Another assay concerns caspase-1 in HFM. Description: Caspase-1 expression, fluorometric assay, human fetal microglia. In kind it is cell-based. As to the method:
(§6) Two different types of microglial, primary cultures of human fetal microglia and mouse microglial BV2 cell line, were used for in vitro testing of amylin receptor function. This approach provided confirmation of the presence of microglial amylin receptors across species and cross-validated our observations on the function of amylin receptors in both primary cell cultures and a frequently used cell line. Primary mixed glial cultures were prepared from 12- to 15-gestational-week fetuses as previously reported. Briefly, the meninges and blood vessels were removed and the brain tissue was washed in minimum essential medium and mechanically dissociated by repeated trituration through a 20-gauge needle. Cells were centrifuged at 1500g for 10 min and re-suspended in minimum essential medium with 10% fetal bovine serum. The cultures were grown in a 5% CO2 humidified incubator at 37 °C. […]
(§7) For cultured cell immunofluorescent staining, cells were plated on Lab-TEK chamber slide (ThermoFisher) and fixed with 4% paraformaldehyde (PAF) in PBS, then permeabilized with 0.3% Triton X-100 in PBS and blocked with 2% BSA + 10% goat serum for 1 h. […] Fluorescent microscopy images were acquired with an Axioplan-2 fluorescence microscope with AxioVision software (Carl Zeiss Ltd., Toronto, ON, Canada).

Assay [3] concerns human fetal microglia (HFM); amylin receptor. Description: Intracellular Ca2+ imaging (Fluo-8L-AM, confocal) in human fetal microglia. The assay is classed as cell-based. The following applies: 1 μM.
Description: Two different types of microglial, primary cultures of human fetal microglia and mouse microglial BV2 cell line, were used for in vitro testing of amylin receptor function. […] Primary mixed glial cultures were prepared from 12- to 15-gestational-week fetuses as previously reported [21, 22]. Briefly, the meninges and blood vessels were removed and the brain tissue was washed in minimum essential medium and mechanically dissociated by repeated trituration through a 20-gauge needle. Cells were centrifuged at 1500g for 10 min and re-suspended in minimum essential medium with 10% fetal bovine serum. The cultures were grown in a 5% CO2 humidified incubator at 37 °C. After mixed glial cultures were completely confluent, human fetal microglia (HFM) were isolated by shaking flasks at 100 rpm (IKA KS-260, IKA Works, Wilmington, NC) for 1 h at 37 °C. The media was then collected and centrifuged at 2500 RCF for 5 min at 4 °C. Cell pellets were re-suspended in microglia plating media (MEM + 10% FBS + 1% penicillin/streptomycin). HFM were plated at a 2 × 10^5 cells per milliliter density, and microglia were allowed to attach overnight before further use for experiments. […] For all in vitro experiments, primary human fetal microglial cultures and BV2 cell cultures, each experiment was performed on a fresh batch of cell cultures and repeated a minimum of four times. Statistical analysis was performed on mean data.
Ca^2+ concentration were monitored with confocal microscopy as described previously [23, 24]. Briefly, HFMs were plated on glass coverslips pre-coated with poly-L-ornithine and incubated at 37 °C for 12–36 h. Then, incubated with 5 μM of membrane-permeant fluorescent Ca^2+-sensitive dye Fluo-8L-AM (AAT Bioquest, Inc., Sunnyvale, CA) for 40 min at room temperature (20–23 °C) within < 2 h before imaging. For Ca^2+ imaging, the superfusate of ion content similar to extracellular brain fluid thus contain the following: 130 mM NaCl, 4 mM KCl, 1 mM MgCl2, 2 mM CaCl2, 10 mM HEPES, and 10 mM glucose (pH 7.35) was applied at a rate of 3 ml/min using a roller pump (Watson-Marlow Alitea, Sin-Can, Calgary, AB, Canada). […] Fluorescence intensity was monitored with a FV-300 laser-scanning confocal microscope (Olympus FV300, Markham, Ontario, Canada) equipped with an argon laser (488 nm) and excitation/emission filters (FF02-520/28-25; Semrock, Inc.) for an emission wavelength at 514 nm, measured with a numerical aperture of 0.95 20× XLUMPlanF1 objective (Olympus). Images were acquired at scan rates of 1.25–1.43 per second using a 2–3× digital zoom at full-frame (512 × 512 pixel) resolution. Regions of interest were drawn around distinct cell bodies, and analysis of time courses of change in fluorescence intensity were generated with FluoView software (version 4.3; Olympus). […]
The test system of a further assay is AMY2. Description: cAMP in-cell Western, AMY2-expressing HEK293 cells. In kind it is cell-based. The following applies: 5 min.
Description: as §1, §2, §3, §4

Assay [4] deals with cytokine gene expression in HFM. Description: Cytokine RT-PCR array in human fetal microglia. The assay is classed as cell-based. Particulars: 1 μM, 6 h, vs untreated. As to the method:
The PCR array for TNFα, IL1β, and IL23 gene expression used the RT^2 Profiler PCR Array system (96-well assay plate, SABiosciences) following product instruction. […] RNA was isolated with Rneasy Mini kit (Qiagen) as per the product instructions. For each PCR Array, 4 μg of total RNA were used to prepare cDNA with the appropriate first strand kit from SABiosciences. The cDNA was characterized on the iCycler® iQ Real-Time PCR System (Bio-Rad Laboratories) using the RT2 Profiler PCR Arrays. The resulting raw data were then analyzed using the PCR Array Data Analysis Template and expressed as gene expression fold-change after treatment compared to the control untreated HFM cultures.

A further assay deals with caspase-1 in BV2 cells. In words: Caspase-1 expression in BV2 cells. The assay is classed as cell-based, mouse. As to the method: as §6, §7
The subject of assay [5] is NLRP3 in human fetal microglial (HFM) cultures. Description: NLRP3 immunostaining in human fetal microglia. The following applies: vs basal. In kind it is cell-based. As to the method: Two different types of microglial, primary cultures of human fetal microglia and mouse microglial BV2 cell line, were used for in vitro testing of amylin receptor function. This approach provided confirmation of the presence of microglial amylin receptors across species and cross-validated our observations on the function of amylin receptors in both primary cell cultures and a frequently used cell line. Primary mixed glial cultures were prepared from 12- to 15-gestational-week fetuses as previously reported. Briefly, the meninges and blood vessels were removed and the brain tissue was washed in minimum essential medium and mechanically dissociated by repeated trituration through a 20-gauge needle. Cells were centrifuged at 1500g for 10 min and re-suspended in minimum essential medium with 10% fetal bovine serum. The cultures were grown in a 5% CO2 humidified incubator at 37 °C. After mixed glial cultures were completely confluent, human fetal microglia (HFM) were isolated by shaking flasks at 100 rpm (IKA KS-260, IKA Works, Wilmington, NC) for 1 h at 37 °C. The media was then collected and centrifuged at 2500 RCF for 5 min at 4 °C. Cell pellets were re-suspended in microglia plating media (MEM + 10% FBS + 1% penicillin/streptomycin). HFM were plated at a 2 × 10^5 cells per milliliter density, and microglia were allowed to attach overnight before further use for experiments. BV2 cells (kindly provided by Dr. T. Trang, University of Calgary) were cultured in DMEM/F12 media with 10% FBS. For all in vitro experiments, primary human fetal microglial cultures and BV2 cell cultures, each experiment was performed on a fresh batch of cell cultures and repeated a minimum of four times. […]
as §7

A further assay concerns transgenic AD mice. Particulars: systemic administration, ref [40], [41]; cited from earlier work.
Description: as §5

For another assay, the system named is BV2 cells. Description: Aβ uptake and plaque-like structure formation in BV2 cells (thioflavin S). In kind it is cell-based, mouse. The following applies: BV2, 1 μM, 24 h, thioflavin S staining. As to the method: as §6, §7

Entries after “also recorded” stand apart in the source; their conditions may differ. Ends that are not written are not given here.

For “hAmylin: human amylin, the endogenous peptide that binds to the amylin receptor; purchased from American Peptide (KCNTATCATQRLANFLVHSSNNFGAILSSTNVGSNTY; not fully specified (C-terminus, bridges); cysteine pairing not given here; UniProt P10997 34-70, looked up)”, the “Receptor activation (cAMP)” value is listed as “activated” with AMY3, “not significantly” in the assay on CTR, “activated” with AMY1 and “not significantly” with AMY2. Moreover, the cAMP response result in assay [1] is on record as “not significantly”. Moreover, the “Effect on hippocampal long-term potentiation” value in assay [2] is given as “depression of hippocampal long-term potentiation”. Moreover, the “Activation of AMY3 receptor subtype with downstream MAPK and Akt signaling” value in the assay on AMY3 receptor subtype is “preferentially activate AMY3 receptor subtype”. Moreover, the Caspase-1 expression result in the assay with caspase-1 in HFM and with caspase-1 in BV2 cells was “increased” throughout. For the same substance, the “Time of return of Ca2+ to base line” value in assay [3] (30 s application) was no more than 2 min. Besides, the “Time to Ca2+ increase after entry of the peptide into the imaging chamber” value in assay [3] (30 s application) is recorded as no more than 1 min. Moreover, the “Intracellular Ca2+ change” value in [3] (bath application 30 s, Fluo-8, pooled n = 123 HFM in 12 culture wells, four batches) is listed as “robust Ca^2+ increase”. For the same substance, the IL1β gene expression entry in assay [4] is recorded as “increases”. Also, in assay [4], the TNFα gene expression result is “increases”. Further, the NLRP3 level entry in assay [5] is recorded as “increased significantly; also recorded: Increased activation of the inflammasome, NLRP3”.
For pramlintide, the “Effect on hAmylin- and Aβ-induced depression of hippocampal long-term potentiation” value in [2] is listed as “attenuate”. In addition, in the assay on transgenic AD mice, the “Amyloid burden in the brain” value is given as “reduce amyloid burden in the brain” and the “Efflux of Aβ across the blood brain barrier” value is given as “promoting an efflux of Aβ across the blood brain barrier”.
For “Aβ1–42: soluble oligomeric amyloid beta 1–42 peptide from rPeptide”, the “Effect on hippocampal long-term potentiation” value in assay [2] is on record as “depression of hippocampal long-term potentiation”. The “Activation of AMY3 receptor subtype with downstream MAPK and Akt signaling” value in the assay with AMY3 receptor subtype is “preferentially activate AMY3 receptor subtype”. The Caspase-1 expression entry in the assay on caspase-1 in HFM and with caspase-1 in BV2 cells was “increased” in each case. Further, in [3] (30 s application), the “Time to Ca2+ increase after entry of the peptide into the imaging chamber” value was no more than 1 min. For the same substance, the “Uptake of Aβ1–42 and formation of plaque-like structures” value in the assay with BV2 cells was “uptake of the peptide into the microglia and formation of plaque-like structures on the cell surface; also recorded: taken up into the cells and formed plaque-like structures”. In assay [4], the IL1β gene expression entry is given as “increases”. Also, the TNFα gene expression result in assay [4] is “increases”. Further, the NLRP3 level entry in assay [5] is listed as “Increased activation of the inflammasome, NLRP3”; in assay [5] (listed as Aβ), “increased significantly”.
